Data as given in ChEMBL document CHEMBL5120922, “Discovery, Optimization, and Evaluation of Potent and Selective PI3Kδ-γ Dual Inhibitors for the Treatment of B-cell Malignancies” (J Med Chem, 2022).

Legend:
Type in all cases: functional
SU-DHL-6 [1] = assay: Induction of cell cycle arrest in human SU-DHL-6 cells assessed as accumulation of cells at G0/G1 phase at 0.5 uM incubated for 24 hrs by PI staining based FACScan flow cytometry analysis (reference value: 55.61 %)
SU-DHL-6 [2] = assay: Induction of cell cycle arrest in human SU-DHL-6 cells assessed as accumulation of cells at S phase at 0.5 uM incubated for 24 hrs by PI staining based FACScan flow cytometry analysis (reference value: 24.18 %)
SU-DHL-6 [3] = assay: Induction of cell cycle arrest in human SU-DHL-6 cells assessed as accumulation of cells at G2/M phase at 0.5 uM incubated for 24 hrs by PI staining based FACScan flow cytometry analysis (reference value: 20.21 %)
DOHH-2 [4] = assay: Induction of cell cycle arrest in human DOHH-2 cells assessed as accumulation of cells at G0/G1 phase at 1 uM incubated for 24 hrs by PI staining based flow cytometry analysis (reference value: 23.47 %)
DOHH-2 [5] = assay: Induction of cell cycle arrest in human DOHH-2 cells assessed as accumulation of cells at S phase at 1 uM incubated for 24 hrs by PI staining based flow cytometry analysis (reference value: 55.11 %)
DOHH-2 [6] = assay: Induction of cell cycle arrest in human DOHH-2 cells assessed as accumulation of cells at G2/M phase at 1 uM incubated for 24 hrs by PI staining based flow cytometry analysis (reference value: 21.42 %)
SU-DHL-6 [7] = assay: Induction of apoptosis in human SU-DHL-6 cells assessed as viable cells at 1.5 uM incubated for 48 hrs by annexin V-FITC and PI staining based flow cytometry analysis (reference value: 87.0 %); settings: read-out: Activity
SU-DHL-6 [8] = assay: Induction of apoptosis in human SU-DHL-6 cells assessed as early apoptotic cells at 1.5 uM incubated for 48 hrs by annexin V-FITC and PI staining based flow cytometry analysis (reference value: 8.81 %)
SU-DHL-6 [9] = assay: Induction of apoptosis in human SU-DHL-6 cells assessed as late apoptotic cells at 1.5 uM incubated for 48 hrs by annexin V-FITC and PI staining based flow cytometry analysis (reference value: 3.88 %)
SU-DHL-6 [10] = assay: Induction of apoptosis in human SU-DHL-6 cells assessed as necrotic cells at 1.5 uM incubated for 48 hrs by annexin V-FITC and PI staining based flow cytometry analysis (reference value: 0.32%)
DOHH-2 [11] = assay: Induction of apoptosis in human DOHH-2 cells assessed as viable cells at 1 uM incubated for 48 hrs by annexin V-FITC and PI staining based flow cytometry analysis (reference value: 95.4 %); settings: read-out: Activity
DOHH-2 [12] = assay: Induction of apoptosis in human DOHH-2 cells assessed as early apoptotic cells at 1 uM incubated for 48 hrs by annexin V-FITC and PI staining based flow cytometry analysis (reference value: 2.09 %)
DOHH-2 [13] = assay: Induction of apoptosis in human DOHH-2 cells assessed as late apoptotic cells at 1 uM incubated for 48 hrs by annexin V-FITC and PI staining based flow cytometry analysis (reference value: 2.20 %)
DOHH-2 [14] = assay: Induction of apoptosis in human DOHH-2 cells assessed as necrotic cells at 1 uM incubated for 48 hrs by annexin V-FITC and PI staining based flow cytometry analysis (Rvb =0.29 %)

Q: For C=CC(=O)N1CCC[C@@H](n2nc(-c3ccc(Oc4ccccc4)cc3)c3c(N)ncnc32)C1 [IBRUTINIB], which Activity (SU-DHL-6 [1]) is on record?
A: Its Activity is 58.11%.

Q: And the Activity (SU-DHL-6 [2])?
A: The Activity was 29.85%.

Q: What about the Activity (SU-DHL-6 [3]) of the same molecule?
A: The Activity was 12.04%.

Q: And the Activity (DOHH-2 [4])?
A: Its Activity is 46.69%.

Q: What about the Activity (DOHH-2 [5]) of the same molecule?
A: The Activity was 40.49%.

Q: And the Activity (DOHH-2 [6])?
A: The Activity was 13.92%.

Q: And the viability at 1.5 µM (SU-DHL-6 [7])?
A: The viability at 1.5 µM was 86.1%.

Q: What about the Activity (SU-DHL-6 [8]) of the same molecule?
A: Its Activity is 9.9%.

Q: And the Activity (SU-DHL-6 [9])?
A: The Activity was 4.62%.

Q: And the Activity (SU-DHL-6 [10])?
A: Its Activity is 0.15%.

Q: And the viability at 1 µM (DOHH-2 [11])?
A: Its viability at 1 µM is 79.9%.

Q: What about the Activity (DOHH-2 [12]) of the same molecule?
A: The Activity was 8.69%.

Q: And the Activity (DOHH-2 [13])?
A: Its Activity is 10.7%.

Q: What about the Activity (DOHH-2 [14]) of the same molecule?
A: The Activity was 0.7%.
